Source: the supplement of paper PMC9244889
Where a name gives a salt, the structure may show the parent alone.

What was measured:
Vero E6 [1] = assay: inhibition of SARS-CoV-2-induced cytopathic effect relative to cell and virus controls; higher = more antiviral protection; conditions: 72 h, virus: SARS-CoV-2 propagated original strain, 100 TCID50, assay detail: infected
Method: (§1)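 Vero E6 C1008 cells (2e4 cells/well) were treated with a 3-fold dilution series of each drug (monotherapy), with or without live SARS-CoV-2 (propagated original strain, 100 TCID50). After 72 h at 37 °C, viability was read with Viral ToxGlo (ATP luminescence). %Inhibition of virus-induced CPE and %Cytotoxicity (uninfected) were normalised to cell and virus controls. Triplicates. The paper excluded %Inhibition points with >25% cytotoxicity from its curve fits.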

Vero E6 [2] = assay: cytotoxicity relative to untreated cell control; higher = more toxic; conditions: 72 h, assay detail: uninfected
Method: as §1

O=c1nc(NO)ccn1[C@@H]1O[C@H](CO)[C@@H](O)[C@H]1O [EIDD-1931]
Conditions | cytotoxicity, Vero E6 [2] [%] | inhibition of SARS-CoV-2-induced cytopathic effect, Vero E6 [1] [%]
56.45 pM | -9.83 | -1.26
0.000169351 µM | -16.6 | 0.00675
0.000508053 µM | -20 | 0.0533
0.00152416 µM | -19.1 | 0.601
0.00457247 µM | -16.2 | -0.506
0.0137174 µM | -14.9 | -0.261
0.0411523 µM | -10.5 | -0.787
0.123457 µM | -12.1 | 3.32
0.37037 µM | -7.1 | 13.2
1.11111 µM | -15.6 | 57.5
3.33333 µM | 7.25 | 78.3
10 µM | 25.9 | 70.6

CCc1c2c(nc3ccc(O)cc13)-c1cc3c(c(=O)n1C2)COC(=O)[C@]3(O)CC [SN-38]
Conditions | cytotoxicity, Vero E6 [2] [%] | inhibition of SARS-CoV-2-induced cytopathic effect, Vero E6 [1] [%]
56.45 pM | -12.2 | -1.53
0.000169351 µM | -12.8 | -0.815
0.000508053 µM | -9.63 | -0.975
0.00152416 µM | -8.98 | -2.92
0.00457247 µM | -9.11 | -3.61
0.0137174 µM | -9.99 | -6.1
0.0411523 µM | 5.49 | -10.4
0.123457 µM | 1.29 | -10.9
0.37037 µM | 1.32 | -11.1
1.11111 µM | 6.01 | -10.4
3.33333 µM | 43.6 | -14.8
10 µM | 82.6 | -17.4

CCS(=O)(=O)N1CC(CC#N)(n2cc(-c3ncnc4[nH]ccc34)cn2)C1 [baricitinib]
Conditions | cytotoxicity, Vero E6 [2] [%] | inhibition of SARS-CoV-2-induced cytopathic effect, Vero E6 [1] [%]
56.45 pM | -23.8 | 0.443
0.000169351 µM | -24.9 | -0.597
0.000508053 µM | -20.2 | 1.73
0.00152416 µM | -17.5 | 0.473
0.00457247 µM | -20.6 | 0.0832
0.0137174 µM | -15.3 | -0.169
0.0411523 µM | -17.8 | -0.529
0.123457 µM | -13.4 | -0.177
0.37037 µM | -9.61 | 0.117
1.11111 µM | -14 | -1.55
3.33333 µM | -9.73 | -2.06
10 µM | -10.3 | -1.06

O=c1c2ccccc2[se]n1-c1ccccc1 [ebselen]
Conditions | cytotoxicity, Vero E6 [2] [%] | inhibition of SARS-CoV-2-induced cytopathic effect, Vero E6 [1] [%]
56.45 pM | -9.38 | 0.954
0.000169351 µM | -15.3 | -0.438
0.000508053 µM | -9.41 | -0.0732
0.00152416 µM | -4.85 | -0.949
0.00457247 µM | -3.63 | -0.344
0.0137174 µM | -5.61 | -0.6
0.0411523 µM | -10.3 | -1.57
0.123457 µM | -6.66 | 0.817
0.37037 µM | -2.52 | 0.828
1.11111 µM | -1.45 | 1.82
3.33333 µM | 2.92 | 6.69
10 µM | 17.6 | 71.3

Cc1ccc(NC(=O)c2ccc(CN3CCN(C)CC3)cc2)cc1Nc1nccc(-c2cccnc2)n1 [imatinib mesylate]
Conditions | cytotoxicity, Vero E6 [2] [%] | inhibition of SARS-CoV-2-induced cytopathic effect, Vero E6 [1] [%]
0.000564503 µM | 4.59 | 0.0871
0.00169351 µM | -0.227 | -0.274
0.00508053 µM | -4.57 | -1.02
0.0152416 µM | -8.01 | -0.646
0.0457247 µM | -4.41 | -1.84
0.137174 µM | -4.39 | -1.94
0.411523 µM | -6.59 | -2
1.23457 µM | -4.79 | 1.61
3.7037 µM | -6.93 | 18
11.1111 µM | 9.9 | 102
33.3333 µM | 61.8 | 48.6
100 µM | 99.785 | -17.3

Cc1cccc(C)c1OCC(=O)N[C@@H](Cc1ccccc1)[C@@H](O)C[C@H](Cc1ccccc1)NC(=O)[C@H](C(C)C)N1CCCNC1=O [lopinavir]
Conditions | cytotoxicity, Vero E6 [2] [%] | inhibition of SARS-CoV-2-induced cytopathic effect, Vero E6 [1] [%]
0.00112901 µM | 8.74 | 2.06
0.00338702 µM | 6.74 | 1.04
0.0101611 µM | -8.25 | 1.48
0.0304832 µM | -3.94 | 0.483
0.0914495 µM | -7.05 | 1.04
0.274348 µM | -5.02 | 2.11
0.823045 µM | -7.06 | 1.91
2.46914 µM | -5.88 | 1.69
7.40741 µM | -25.7 | 2.75
22.2222 µM | 25.9 | 72.7
66.6667 µM | 99.066 | -14.47
200 µM | 99.504 | -14.97
